Patent US9605026B2, “Hydrogen-bond surrogate peptides and peptidomimetics for p53 reactivation” (New York University, priority 2013, dated 2017)

Columns and labels:
UMSCC47 cells [1] = test: Tumorsphere formation of UMSCC47 cells; format: cell-based, human; conditions: UMSCC47, 10 μM, 7 days, vs vehicle
Method: FIG. 6A is a western blot showing total and acetylated p53 levels. UMSCC47 cells were treated with control (vehicle), CH1iB (10 μM), cis-platinum (10 μM), or CH1iB (10 μM) and cis-platinum (10 μM) for 24 hours. Cell lysates were immunoblotted with anti-p53 or anti-acetylated[K382]-p53 antibody. FIG. 6B is a graph of p53 transcriptional activity. UMSCC47 cells were co-transfected with a p53 Firefly luciferase reporter plasmid and a control Renilla luciferase plasmid. After 24 hours, cells were treated with control (vehicle), CH1iB (10 μM), cis-platinum (10 μM), or CH1iB (10 μM) and cis-platinum (10 μM) for 24 hours. Firefly luciferase activity was normalized to Renilla luciferase activity to control for transfection efficiency. […] UMSCC47 cells were treated with control (vehicle), CH1iB (10 μM), cis-platinum (10 μM), or CH1iB (10 μM) and cis-platinum (10 μM) for 24 hours. mRNA expression was determined using qPCR with validated TaqMan assays. […] FACS was used to quantitate Annexin V-positive apoptotic cells (left panel). […] Tumorsphere formation efficiency was calculated as the number of tumorspheres (≧50 μm in diameter) formed in 7 days divided by the original number of cells seeded. Tumorsphere diameter was measured using NIS-Elements software. […]

UMSCC47 cells [2] = test: Clonogenic survival of UMSCC47 cells; format: cell-based, human; conditions: UMSCC47, 10 μM at day 0, colonies at 14 days, vs vehicle

## XELA*RALDQ-NH2 (ELXRALDQ; HBS: 4-pentenoic acid, N-allylalanine; C-terminal amide; CH1iB) [X 4-pentenoic acid, A* N-allylalanine]
UMSCC47 cells [1]
  reduction of tumorsphere formation: 20%
UMSCC47 cells [2]
  reduction (inhibition) of clonogenic survival: 35%
